# Laboratory results taken from ChEMBL document CHEMBL3867428, “Eremophilane Sesquiterpenes from an Endophytic Fungus Periconia Species” (J Nat Prod, 2016).
# Assays:
# [1] = tested on: Human immunodeficiency virus 1; assay: Antiviral activity against VSV-G pseudotyped HIV1 infected in human SupT1 cells after 48 hrs by luciferase reporter gene assay; type: functional, cell-based; conditions: Human immunodeficiency virus 1, SUP-T1, 48 h
# [2] = Cytotoxicity against human HeLa cells assessed as reduction in cell viability after 96 hrs by MTT assay; type: functional, cell-based
# [3] = Antiinflammatory activity in […] cells assessed as inhibition of LPS-induced NO production at 1 uM preincubated with compound followed by LPS stimulation after 24 hrs; type: functional; conditions: Mus musculus, BV-2
# [4] = Cytotoxicity against human MCF7 cells assessed as reduction in cell viability after 96 hrs by MTT assay; type: functional, cell-based; conditions: MCF7, 96 h
compound,measurement,setting,value
C[C@H]1C(=O)C=CC2=C[C@@H](O)[C@H](O)C[C@@]21C,IC50,[1],11 µM
same,IC50,[2],16.5 µM
C=C(C)[C@@H]1C[C@@]2(C)C(=C[C@@H](O)[C@H](O)[C@@H]2C)[C@@H](O)[C@H]1O,inhibition at 1 µM,[3],18.3%
C=C(C)[C@]1(O)C[C@@]2(C)C(=C[C@H]1O)C=CC(=O)[C@@H]2C,inhibition at 1 µM,[3],10.2%
C=C(C)[C@@]1(O)C[C@@]2(C)C(=C[C@@H]1O)C=CC(=O)[C@H]2C,IC50,[4],17.9 µM
COc1cc(/C=C/C(=O)CC(=O)/C=C/c2ccc(O)c(OC)c2)ccc1O [CURCUMIN],inhibition at 1 µM,[3],12.9%
CC(=O)O[C@H]1C(=O)[C@@]2(C)[C@H]([C@H](OC(=O)c3ccccc3)[C@]3(O)C[C@H](OC(=O)[C@H](O)[C@@H](NC(=O)c4ccccc4)c4ccccc4)C(C)=C1C3(C)C)[C@]1(OC(C)=O)CO[C@@H]1C[C@@H]2O [PACLITAXEL],IC50,[4],0.0002 µM
same,IC50,[2],0.0064 µM
C[C@@H]1C(=O)C=CC2=C[C@@H](O)[C@H](O)C[C@@]21C,inhibition at 1 µM,[3],16.1%
